Test results as given in US20220281848A1, “PYRAZOLE-SUBSTITUTED PYRROLIDINONES AS HERBICIDES” (FMC Corporation, priority 2019, published 2022).

How the values were obtained:
Format in all cases: in vivo
Settings in all cases: after 13 d
[1] = tested on: ivy-leaved morning glory (Ipomoea hederacea, IPOHE); assay: Test A pre-emergence, ivy-leaved morning glory
Protocol: (§1) Seeds of corn (Zea mays, ZEAMX), giant foxtail (Setaria faberi, SETFA), barnyardgrass (Echinochloa crus-galli, ECHCG), ivy-leaved morning glory (Ipomoea hederacea, IPOHE), redroot pigweed (Amaranthus retroflexus, AMARE) and velvetleaf (Abutilon theophrasti, ABUTH) were sown in standard soil in pots. After cultivation for one day under controlled conditions in a glasshouse (at 24/16° C., day/night; 14 h light; 65% humidity), the plants were sprayed with an aqueous spray solution derived from the formulation of the technical active ingredient in acetone/water (50:50) solution containing 0.5% Tween 20 (polyoxyethylene sorbitan monolaurate, CAS RN 9005-64-5) to give a final dose of 15.625, 62.5 or 250 g/ha of test compound.
(§2) The test plants were then grown under controlled conditions in a glasshouse (at 24/16° C., day/night; 14 h light; 65% humidity) and watered twice daily. After 13 d the test was evaluated (100=total damage to plant; 0=no damage to plant).

corn (Zea mays, ZEAMX) [2] = assay: Test A pre-emergence, corn
Protocol: as §1, §2

[3] = tested on: barnyardgrass (Echinochloa crus-galli, ECHCG); assay: Test A post-emergence, barnyardgrass
Protocol: as §1, with “IPOHE)),” for “IPOHE),”, “8 d” for “one day”
(§3) The test plants were then grown on under controlled conditions in a glasshouse (at 24/16° C., day/night; 14 h light; 65% humidity) and watered twice daily. After 13 d the test was evaluated (100=total damage to plant; 0=no damage to plant).

[4] = tested on: redroot pigweed (Amaranthus retroflexus, AMARE); assay: Test A post-emergence, redroot pigweed
Protocol: as §1, with “IPOHE)),” for “IPOHE),”, “8 d” for “one day”
as §3

[5] = tested on: barnyardgrass (Echinochloa crus-galli, ECHCG); assay: Test A pre-emergence, barnyardgrass
Protocol: as §1, §2

[6] = tested on: redroot pigweed (Amaranthus retroflexus, AMARE); assay: Test A pre-emergence, redroot pigweed
Protocol: as §1, §2

[7] = tested on: velvetleaf (Abutilon theophrasti, ABUTH); assay: Test A pre-emergence, velvetleaf
Protocol: as §1, §2

[8] = tested on: giant foxtail (Setaria faberi, SETFA); assay: Test A post-emergence, giant foxtail
Protocol: as §1, with “IPOHE)),” for “IPOHE),”, “8 d” for “one day”
as §3

[9] = tested on: giant foxtail (Setaria faberi, SETFA); assay: Test A pre-emergence, giant foxtail
Protocol: as §1, §2

[10] = tested on: ivy-leaved morning glory (Ipomoea hederacea, IPOHE); assay: Test A post-emergence, ivy-leaved morning glory
Protocol: as §1, with “IPOHE)),” for “IPOHE),”, “8 d” for “one day”
as §3

corn (Zea mays, ZEAMX) [11] = assay: Test A post-emergence, corn
Protocol: as §1, with “IPOHE)),” for “IPOHE),”, “8 d” for “one day”
as §3

[12] = tested on: velvetleaf (Abutilon theophrasti, ABUTH); assay: Test A post-emergence, velvetleaf
Protocol: as §1, with “IPOHE)),” for “IPOHE),”, “8 d” for “one day”
as §3

Structure (SMILES) | damage to plant (100=total damage; 0=no damage) IPOHE ([1]; Pre-Emergence at 15.625 g/ha) | damage to plant (100=total damage; 0=no damage) IPOHE ([1]; Pre-Emergence at 62.5 g/ha) | damage to plant (100=total damage; 0=no damage) IPOHE ([1]; Pre-Emergence at 250 g/ha) | damage to plant (100=total damage; 0=no damage) ZEAMX (corn (Zea mays, ZEAMX) [2]; Pre-Emergence at 15.625 g/ha) | damage to plant (100=total damage; 0=no damage) ZEAMX (corn (Zea mays, ZEAMX) [2]; Pre-Emergence at 62.5 g/ha) | damage to plant (100=total damage; 0=no damage) ZEAMX (corn (Zea mays, ZEAMX) [2]; Pre-Emergence at 250 g/ha) | damage to plant (100=total damage; 0=no damage) ECHCG ([3]; Post-Emergence at 15.625 g/ha) | damage to plant (100=total damage; 0=no damage) ECHCG ([3]; Post-Emergence at 62.5 g/ha) | damage to plant (100=total damage; 0=no damage) ECHCG ([3]; Post-Emergence at 250 g/ha) | damage to plant (100=total damage; 0=no damage) AMARE ([4]; Post-Emergence at 15.625 g/ha) | damage to plant (100=total damage; 0=no damage) AMARE ([4]; Post-Emergence at 62.5 g/ha) | damage to plant (100=total damage; 0=no damage) AMARE ([4]; Post-Emergence at 250 g/ha) | damage to plant (100=total damage; 0=no damage) ECHCG ([5]; Pre-Emergence at 15.625 g/ha) | damage to plant (100=total damage; 0=no damage) ECHCG ([5]; Pre-Emergence at 62.5 g/ha) | damage to plant (100=total damage; 0=no damage) ECHCG ([5]; Pre-Emergence at 250 g/ha) | damage to plant (100=total damage; 0=no damage) AMARE ([6]; Pre-Emergence at 15.625 g/ha) | damage to plant (100=total damage; 0=no damage) AMARE ([6]; Pre-Emergence at 62.5 g/ha) | damage to plant (100=total damage; 0=no damage) AMARE ([6]; Pre-Emergence at 250 g/ha) | damage to plant (100=total damage; 0=no damage) ABUTH ([7]; Pre-Emergence at 15.625 g/ha) | damage to plant (100=total damage; 0=no damage) ABUTH ([7]; Pre-Emergence at 62.5 g/ha) | also measured
CCn1nc([C@H]2CN(C)C(=O)[C@@H]2C(=O)Nc2ccc(F)nc2F)c2cccc(F)c21 [Compound 11] | 0 | 0 | 10 | 0 | 0 | 20 | 50 | 90 | 90 | 0 | 0 | 0 | 20 | 90 | 90 | 0 | 0 | 0 | 0 | 0 | damage to plant (100=total damage; 0=no damage) ABUTH ([7]; Pre-Emergence at 250 g/ha): 0; damage to plant (100=total damage; 0=no damage) SETFA ([8]; Post-Emergence at 15.625 g/ha): 60; damage to plant (100=total damage; 0=no damage) SETFA ([8]; Post-Emergence at 62.5 g/ha): 80; damage to plant (100=total damage; 0=no damage) SETFA ([8]; Post-Emergence at 250 g/ha): 80; damage to plant (100=total damage; 0=no damage) SETFA ([9]; Pre-Emergence at 15.625 g/ha): 80; damage to plant (100=total damage; 0=no damage) SETFA ([9]; Pre-Emergence at 62.5 g/ha): 90; damage to plant (100=total damage; 0=no damage) SETFA ([9]; Pre-Emergence at 250 g/ha): 90; damage to plant (100=total damage; 0=no damage) IPOHE ([10]; Post-Emergence at 15.625 g/ha): 0; damage to plant (100=total damage; 0=no damage) IPOHE ([10]; Post-Emergence at 62.5 g/ha): 0; damage to plant (100=total damage; 0=no damage) IPOHE ([10]; Post-Emergence at 250 g/ha): 0; damage to plant (100=total damage; 0=no damage) ZEAMX (corn (Zea mays, ZEAMX) [11]; Post-Emergence at 15.625 g/ha): 10; damage to plant (100=total damage; 0=no damage) ZEAMX (corn (Zea mays, ZEAMX) [11]; Post-Emergence at 62.5 g/ha): 10; damage to plant (100=total damage; 0=no damage) ZEAMX (corn (Zea mays, ZEAMX) [11]; Post-Emergence at 250 g/ha): 40; damage to plant (100=total damage; 0=no damage) ABUTH ([12]; Post-Emergence at 15.625 g/ha): 0; damage to plant (100=total damage; 0=no damage) ABUTH ([12]; Post-Emergence at 62.5 g/ha): 0; damage to plant (100=total damage; 0=no damage) ABUTH ([12]; Post-Emergence at 250 g/ha): 0
CCn1nc(C2CN(C)C(=O)C2C(=O)Nc2cccc(F)c2F)c2cccc(F)c21 (racemic) [Compound 10] | 0 | 30 | 0 | 0 | 70 | 70 | 60 | 90 | 90 | 0 | 0 | 0 | 50 | 90 | 90 | 0 | 0 | 10 | 0 | 10 | damage to plant (100=total damage; 0=no damage) ABUTH ([7]; Pre-Emergence at 250 g/ha): 0; damage to plant (100=total damage; 0=no damage) SETFA ([8]; Post-Emergence at 15.625 g/ha): 50; damage to plant (100=total damage; 0=no damage) SETFA ([8]; Post-Emergence at 62.5 g/ha): 80; damage to plant (100=total damage; 0=no damage) SETFA ([8]; Post-Emergence at 250 g/ha): 90; damage to plant (100=total damage; 0=no damage) SETFA ([9]; Pre-Emergence at 15.625 g/ha): 80; damage to plant (100=total damage; 0=no damage) SETFA ([9]; Pre-Emergence at 62.5 g/ha): 90; damage to plant (100=total damage; 0=no damage) SETFA ([9]; Pre-Emergence at 250 g/ha): 90; damage to plant (100=total damage; 0=no damage) IPOHE ([10]; Post-Emergence at 15.625 g/ha): 0; damage to plant (100=total damage; 0=no damage) IPOHE ([10]; Post-Emergence at 62.5 g/ha): 0; damage to plant (100=total damage; 0=no damage) IPOHE ([10]; Post-Emergence at 250 g/ha): 30; damage to plant (100=total damage; 0=no damage) ZEAMX (corn (Zea mays, ZEAMX) [11]; Post-Emergence at 15.625 g/ha): 0; damage to plant (100=total damage; 0=no damage) ZEAMX (corn (Zea mays, ZEAMX) [11]; Post-Emergence at 62.5 g/ha): 10; damage to plant (100=total damage; 0=no damage) ZEAMX (corn (Zea mays, ZEAMX) [11]; Post-Emergence at 250 g/ha): 70; damage to plant (100=total damage; 0=no damage) ABUTH ([12]; Post-Emergence at 15.625 g/ha): 0; damage to plant (100=total damage; 0=no damage) ABUTH ([12]; Post-Emergence at 62.5 g/ha): 0; damage to plant (100=total damage; 0=no damage) ABUTH ([12]; Post-Emergence at 250 g/ha): 10
